This note sets out measurements from patent US12686665B2, “Bicyclic fused ring derivative or salt thereof and pharmaceutical composition comprising same” (YUHAN CORPORATION, priority 2021, dated 2026).

Counter-ions that a name gives are not always drawn.

Holding throughout (format): biochemical
The target in test [1] is T1, recombinant human MAO-B (monoamine oxidase-B) (Homo sapiens, UniProt P27338).
T1 construct: purchased Sigma-Aldrich
T1 sequence (P27338 1-520): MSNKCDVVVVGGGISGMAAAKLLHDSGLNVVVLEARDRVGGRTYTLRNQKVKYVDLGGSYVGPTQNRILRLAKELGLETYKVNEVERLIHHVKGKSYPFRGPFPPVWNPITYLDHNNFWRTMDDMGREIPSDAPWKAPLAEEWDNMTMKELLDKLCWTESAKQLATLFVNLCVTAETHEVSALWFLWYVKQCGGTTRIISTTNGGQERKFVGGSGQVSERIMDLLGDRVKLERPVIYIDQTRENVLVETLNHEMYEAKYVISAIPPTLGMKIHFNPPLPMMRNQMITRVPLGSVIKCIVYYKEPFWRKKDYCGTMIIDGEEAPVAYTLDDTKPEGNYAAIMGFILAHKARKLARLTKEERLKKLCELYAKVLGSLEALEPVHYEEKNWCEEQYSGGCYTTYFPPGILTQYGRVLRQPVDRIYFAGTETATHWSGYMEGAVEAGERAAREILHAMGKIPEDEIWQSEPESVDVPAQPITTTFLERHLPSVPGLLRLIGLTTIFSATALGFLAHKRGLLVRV
In words: Amplex Red HRP-coupled amine oxidase assay, recombinant human MAO-B. The note with it: 1 mM benzylamine substrate, read-out: Inhibitory activity (IC50, nM) MAO-B. Summed up: (§1)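 Enzyme preincubated 60 min at 37 °C with compound (six-point curve, 1% DMSO final) in 50 mM sodium phosphate pH 7.4, then Amplex Red 400 μM and HRP 2 U/mL added with substrate: MAO-A 0.5 mM tyramine, MAO-B 1 mM benzylamine, DAO 1 mM putrescine. Resorufin fluorescence read after 1 h; IC50 by four-parameter logistic fit.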

Test [2] has as its target T2, recombinant human DAO (diamine oxidase) (Homo sapiens, UniProt P19801).
T2 construct: purchased R&D systems
T2 sequence (P19801 20-751): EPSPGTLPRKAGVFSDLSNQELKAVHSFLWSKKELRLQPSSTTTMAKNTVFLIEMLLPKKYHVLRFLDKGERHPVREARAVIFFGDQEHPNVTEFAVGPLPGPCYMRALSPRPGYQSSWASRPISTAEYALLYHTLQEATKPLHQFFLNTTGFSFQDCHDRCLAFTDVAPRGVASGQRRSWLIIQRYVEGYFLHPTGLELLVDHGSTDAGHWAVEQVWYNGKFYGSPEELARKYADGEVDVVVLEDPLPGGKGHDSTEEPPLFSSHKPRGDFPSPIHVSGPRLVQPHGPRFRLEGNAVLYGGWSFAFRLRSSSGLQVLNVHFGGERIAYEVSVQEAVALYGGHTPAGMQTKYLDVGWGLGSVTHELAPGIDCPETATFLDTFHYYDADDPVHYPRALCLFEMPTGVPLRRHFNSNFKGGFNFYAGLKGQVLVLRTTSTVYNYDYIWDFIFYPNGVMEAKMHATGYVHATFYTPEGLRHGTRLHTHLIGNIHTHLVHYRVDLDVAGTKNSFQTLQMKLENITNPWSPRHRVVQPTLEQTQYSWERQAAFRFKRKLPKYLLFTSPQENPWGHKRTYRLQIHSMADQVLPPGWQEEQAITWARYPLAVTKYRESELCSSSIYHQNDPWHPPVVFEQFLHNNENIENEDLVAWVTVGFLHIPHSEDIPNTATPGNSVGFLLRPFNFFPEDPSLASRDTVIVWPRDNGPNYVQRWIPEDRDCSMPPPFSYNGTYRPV
In words: Amplex Red HRP-coupled amine oxidase assay, recombinant human DAO. Conditions: 1 mM putrescine substrate, read-out: Inhibitory activity (IC50, nM) DAO. Summed up: as §1

For test [3], the target named is T3, recombinant human Lysyl Oxidase-Like 2 (LOXL2) (Homo sapiens, UniProt Q9Y4K0).
T3 construct: purchased R&D systems
T3 sequence (Q9Y4K0 26-774): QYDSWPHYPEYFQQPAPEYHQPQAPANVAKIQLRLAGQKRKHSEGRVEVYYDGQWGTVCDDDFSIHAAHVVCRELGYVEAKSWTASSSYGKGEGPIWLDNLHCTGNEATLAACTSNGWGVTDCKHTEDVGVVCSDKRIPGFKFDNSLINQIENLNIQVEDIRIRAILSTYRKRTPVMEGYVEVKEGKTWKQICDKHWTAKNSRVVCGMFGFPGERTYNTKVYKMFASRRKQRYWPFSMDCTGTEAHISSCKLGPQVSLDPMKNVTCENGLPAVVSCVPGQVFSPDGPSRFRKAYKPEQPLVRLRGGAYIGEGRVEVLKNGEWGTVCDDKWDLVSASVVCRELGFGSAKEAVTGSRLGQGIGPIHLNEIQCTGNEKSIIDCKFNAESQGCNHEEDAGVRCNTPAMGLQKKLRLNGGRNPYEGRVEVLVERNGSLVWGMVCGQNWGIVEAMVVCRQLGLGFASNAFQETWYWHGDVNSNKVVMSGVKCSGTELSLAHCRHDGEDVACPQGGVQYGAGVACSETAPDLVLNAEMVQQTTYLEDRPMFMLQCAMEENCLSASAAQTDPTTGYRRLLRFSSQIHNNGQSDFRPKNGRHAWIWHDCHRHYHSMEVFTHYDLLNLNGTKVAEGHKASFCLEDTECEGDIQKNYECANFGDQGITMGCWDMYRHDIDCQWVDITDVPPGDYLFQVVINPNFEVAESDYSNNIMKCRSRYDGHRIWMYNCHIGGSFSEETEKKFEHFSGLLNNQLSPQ
As to the kind of experiment: Amplex Red HRP-coupled amine oxidase assay, recombinant human LOXL2. Conditions: 60 min incubation with enzyme at 37° C., putrescine substrate, read-out: Inhibitory activity (IC50, nM) human LOXL2. Summed up: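 Putrescine substrate (30 mM) in 50 mM sodium phosphate pH 7.4, 37 °C; compounds preincubated 60 min with enzyme, 1% DMSO final, six-point curves. H2O2 detected via 400 μM Amplex Red/2 U/mL HRP, fluorescence (ex 530/em 590 nm) after 1 h; IC50 from four-parameter logistic fit of % signal reduction.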

Test [4] concerns the target T4, recombinant human MAO-A (monoamine oxidase-A) (Homo sapiens, UniProt P21397).
T4 construct: purchased Sigma-Aldrich
T4 sequence (P21397 1-527): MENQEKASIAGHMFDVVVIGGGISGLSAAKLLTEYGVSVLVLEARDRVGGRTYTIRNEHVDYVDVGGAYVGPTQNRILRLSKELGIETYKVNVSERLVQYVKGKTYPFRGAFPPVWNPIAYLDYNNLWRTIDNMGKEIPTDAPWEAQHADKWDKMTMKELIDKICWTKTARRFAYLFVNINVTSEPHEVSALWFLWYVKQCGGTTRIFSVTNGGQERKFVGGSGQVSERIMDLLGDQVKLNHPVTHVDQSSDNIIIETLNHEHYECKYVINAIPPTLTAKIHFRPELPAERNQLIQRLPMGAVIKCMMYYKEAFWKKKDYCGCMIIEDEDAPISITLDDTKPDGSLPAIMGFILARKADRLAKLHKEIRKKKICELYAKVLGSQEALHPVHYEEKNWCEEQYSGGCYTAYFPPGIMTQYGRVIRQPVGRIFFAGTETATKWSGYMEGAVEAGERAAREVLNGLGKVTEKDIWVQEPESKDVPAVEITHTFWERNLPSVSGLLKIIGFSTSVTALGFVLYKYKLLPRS
In words: Amplex Red HRP-coupled amine oxidase assay, recombinant human MAO-A. Conditions: 0.5 mM tyramine substrate, read-out: Inhibitory activity (IC50, nM) MAO-A. Summed up:
as §1

For `COC(=O)c1cc(-c2cccc(S(=O)(=O)N(C)C)c2)c2nc(C)n(C/C(F)=C/CN)c2c1` [Example 66, methyl (Z)-1-(4-amino-2-fluorobut-2-en-1-yl)-4-(3-(N,N-dimethylsulfamoyl)phenyl)-2-methyl-1H-benzo[d]imidazol-6-carboxylate hydrochloride], the IC50 was greater than 100000 nM in test [1], 1610 nM in test [2], 28 nM in test [3] and 7890 nM in test [4].
Turning to `COC(=O)c1cc(-c2cccc(S(C)(=O)=O)c2)c2nc(C)n(C/C(F)=C/CN)c2c1` [Example 67, methyl (Z)-1-(4-amino-2-fluorobut-2-en-1-yl)-2-methyl-4-(3-(methylsulfonyl)phenyl)-1H-benzo[d]imidazol-6-carboxylate hydrochloride], the IC50 in test [1] was greater than 100000 nM; in test [2], 646 nM; in test [3] it was 83 nM; in test [4], greater than 100000 nM.
`COC(=O)c1cc(-c2cccc(S(=O)(=O)N3CCCC3)c2)c2nc(C)n(C/C(F)=C/CN)c2c1` [Example 70, methyl (Z)-1-(4-amino-2-fluorobut-2-en-1-yl)-2-methyl-4-(3-(pyrrolidin-1-ylsulfonyl)phenyl)-1H-benzo[d]imidazol-6-carboxylate hydrochloride]: the IC50 in test [1] is greater than 100000 nM; in test [2], 2500 nM; in test [3] it was 60 nM; in test [4], 10300 nM.
For `CNS(=O)(=O)c1cccc(-c2cc(C(=O)OC)cc3c2nc(C)n3C/C(F)=C/CN)c1` [Example 73, methyl (Z)-1-(4-amino-2-fluorobut-2-en-1-yl)-2-methyl-4-(3-(N-methylsulfamoyl)phenyl)-1H-benzo[d]imidazol-6-carboxylate hydrochloride] the same measures were greater than 100000 nM, 1810 nM, 58 nM and 47900 nM.
Regarding `Cc1nc2c(-c3cccc(S(=O)(=O)N(C)C)c3)cc(C(=O)N(C)C)cc2n1C/C(F)=C/CN` [Example 76, (Z)-1-(4-amino-2-fluorobut-2-en-1-yl)-4-(3-(N,N-dimethylsulfamoyl)phenyl)-N,N,2-trimethyl-1H-benzo[d]imidazol-6-carboxamide hydrochloride], the IC50 in test [1] was greater than 100000 nM; in test [2], 24600 nM; in test [3] it was 58 nM; in test [4], 12400 nM.
As to `CCc1nc2c(-c3cccc(S(=O)(=O)N(C)C)c3)cccc2n1C/C(F)=C/CN` [Example 84, (Z)-3-(1-(4-amino-2-fluorobut-2-en-1-yl)-2-ethyl-1H-benzo[d]imidazol-4-yl)-N,N-dimethyl benzenesulfonamide hydrochloride], the IC50 in test [1] is greater than 100000 nM; in test [2] it was 6690 nM; in test [3], 65 nM; in test [4], 65000 nM.
As for `COc1ccc(-c2cccc3c2nnn3C/C(F)=C/CN)cc1S(=O)(=O)N(C)C` [Example 102, (Z)-5-(1-(4-amino-2-fluorobut-2-en-1-yl)-1H-benzo[d][1,2,3]triazol-4-yl)-2-methoxy-N,N-dimethylbenzenesulfonamide hydrochloride], the IC50 came to 12400 nM in test [1], 37400 nM in test [2], 17 nM in test [3] and 86600 nM in test [4].
In the same order, the values of `NC/C=C(\F)Cn1nnc2c(-c3cccc(S(=O)(=O)N4CCC(F)(F)C4)c3)cccc21` [Example 103, (Z)-4-(4-(3-((3,3-difluoropyrrolidin-1-yl)sulfonyl)phenyl)-1H-benzo[d][1,2,3]triazol-1-yl)-3-fluorobut-2-en-1-amine hydrochloride] are 23500 nM, 27900 nM, 25 nM and 9060 nM.
For `CNS(=O)(=O)c1ccc(OC)c(-c2cccc3c2nnn3C/C(F)=C/CN)c1` [Example 105, (Z)-3-(1-(4-amino-2-fluorobut-2-en-1-yl)-1H-benzo[d][1,2,3]triazol-4-yl)-4-methoxy-N-methylbenzenesulfonamide hydrochloride] the same measures were greater than 100000 nM, 36000 nM, 26 nM and 55100 nM.
For `COc1ccc(S(=O)(=O)NC2CC2)cc1-c1cccc2c1nnn2C/C(F)=C/CN` [Example 108, (Z)-3-(1-(4-amino-2-fluorobut-2-en-1-yl)-1H-benzo[d][1,2,3]triazol-4-yl)-N-cyclopropyl-4-methoxybenzenesulfonamide hydrochloride] the same measures were greater than 100000 nM, greater than 100000 nM, 42 nM and greater than 100000 nM.
Regarding `CNS(=O)(=O)c1cccc(-c2cccc3c2nnn3C/C(F)=C/CN)c1` [Example 111, (Z)-3-(1-(4-amino-2-fluorobut-2-en-1-yl)-1H-benzo[d][1,2,3]triazol-4-yl)-N-methylbenzenesulfonamide hydrochloride], the IC50 in test [1] is greater than 100000 nM; in test [2] it was 30700 nM; in test [3], 35 nM; in test [4] it was greater than 100000 nM.

In general, IC50 refers to the point on the concentration scale where inhibition reaches its midpoint.
